Data reported in patent US20110123483A1, “HMGB1 FOR CANCER TREATMENT” (DEUTSCHES KREBSFORSCHUNGSZENTRUM, priority 2009, published 2011).

Key:
[1] = tested on: U251MG glioblastoma cells; assay: Cytotoxicity assay, cell survival by crystal violet staining; type: cell-based, human
Experimental: 20,000 U251MG glioblastoma cells or human astrocytic cells (ScienCell) were plated into 96-well plates. After 24 h cells were treated with rhHMGB1 (Sigma Aldrich) or rat recombinant HMGB1 (generously provided by Angelika Bierhaus, Heidelberg, Germany), and TRAIL (for 24 h) or Temozolomide (for 72 h) alone or in combination, respectively. […] Cell proliferation was assessed by seeding 50,000 U251 MG cells in 6 cm culture plates and treatment with rhHMGB1, followed by counting the cells in a Neubauer chamber at day 0, 2, 4 and 5.

[2] = tested on: NCH421 K cells; assay: Propidiumiodide (PI) uptake by FACS analysis; type: cell-based; settings: 80 nM or 600 nM (FIG. 12C)
[3] = tested on: U251 MG cells; assay: Subcellular fractionation and Western blot: cytochrome c release, caspase 3 cleavage; type: cell-based, human; settings: rhHMGB1 80 nM, 24 h (FIG. 6)
Experimental: The U251 MG tumor cells were lysed in lysis buffer containing 20 mmol/L Tris-HCl (pH 7.4), 137 mmol/L NaCl, 10% (v/v) glycerine, 1% Triton X-100, 2 mmol/L EDTA, 100 mmol/L phenylmethylsulfonyl fluoride, and protease inhibitors (Complete mini; Roche Molecular Biochemicals). For the detection of phosphoprotein levels, 10 mmol/L NaPPi, 50 mmol/L NaF, and 20 mmol/L NaVO4 were added to the lysis buffer. After 15 min incubation on ice, the lysates were centrifuged at 14,000×g for 10 min. The total protein concentration of the lysates was measured using the Bradford assay (Bio-Rad). Soluble protein (25-100 μg per lane) was separated on 10% to 15% polyacrylamide gels and blotted onto nitrocellulose by standard procedures. The membranes were washed, incubated with primary antibody as indicated: mouse anti-human caspase-3 (1:500, Imgenex, San Diego, Calif.); polyclonal rabbit anti-human phosphorylated p44/42 mitogen-activated protein kinase and polyclonal rabbit anti-human phosphorylated stress-activated protein kinase/JNK (1:1,000, Cell Signaling Technology, Inc.); polyclonal anti-rabbit JNK 54/46 (1:1,000, Cell Signaling Technology, Inc.); polyclonal rabbit anti-human IkBalpha (1:500, Santa Cruz Biotechnology, Inc.); mouse monoclonal anti-human BNIP3 (1:10,000, R&D Systems, Inc.); mouse monoclonal anti-human phosphorylated-histone H2A.X (Upstate, Inc.); mouse monoclonal anti-human cytochrome c (1:100, BD Biosciences Pharmingen GmbH, Heidelberg, Germany); mouse anti-human cytochrome c oxidase complex IV (1:100, Molecular Probes, Invitrogen, Karlsruhe, Germany); polyclonal rabbit antimalondialdehyde (1:250, Calbiochem, Merck, Darmstadt, Germany) and mouse monoclonal antibodies to β-tubulin or β-actin (1:3,000, Sigma Chemical Co., St. Louis, Mo.), washed, and incubated with the appropriate secondary antibody (1:3,000; horseradish peroxidase-conjugated, Bio-Rad). Bound antibodies were visualized using an enhanced chemiluminescence detection system (GE-Healthcare, Uppsala, Sweden).
Enrichment of mitochondrial fractions was performed using the ApoAlert Cell Fractionation Kit (Clontech, Mountain View, Calif.) as described previously (Gdynia et al., 2008). Briefly, after centrifugation and several washing steps, the cell pellet was resuspended in ice-cold 1× Fractionation Buffer Mix containing protease inhibitors (Complete mini; Roche Molecular Biochemicals, Indianapolis, Ind.) and 1 mM 1,4-Dithio-DL-threitol solution (DTT). After 10 min incubation on ice, cells were homogenized with a dounce tissue grinder. Efficiency of homogenization was controlled by microscopy. The homogenate was centrifuged at 700×g for 10 min at 4° C. and the resulting supernatant at 10,000×g for 25 min at 4° C. […]

[4] = tested on: mitochondrial proteome; assay: 2-D gel electrophoresis / 2-D western blot of the mitochondrial proteome; type: cell-based, human
Experimental: Mitochondrial extracts of U251 MG cells precipitated according to the ProteoExtract Protein Precipitation Kit (Calbiochem) were pipetted into the sample cup of each strip holder. For large format 2-D-electrophoresis with silver staining and 2-D-western blots, isoelectric focusing (IEF) was performed as described previously (Schutt et al., 2002) using dry polyacrylamide gel strips (IPG, 24 cm) with an immobilized pH gradient pH 3-10 and the IPGphor1 Isolectric Focusing System (Amersham Pharmacia Biotech). IPG strips were rehydrated in reswelling buffer (7 M urea, 2 M thiourea, 2% (w/v) CHAPS, 65 mM dithiothreitol (DTT), 0.8% Pharmalite) overnight. The IEF protocol started at 500 V for 4 h, followed by an increase from 500 V to 4000 V for 10 h and finally 8000 V for 10 h. Equilibration buffer for IPG strips contained 75 mM Tris-HCl, pH 8.8, 2% SDS, 6 M urea, 29.3% glycerol and 0.002% (w/v) bromophenol blue solution, supplemented with 1.5% DDT for the first 15 min and with 2.5% (w/v) iodoacetamide for the following 15 min. For the second dimension the ETTAN Dalt six electrophoresis system was used. After draining the equilibration solution on filter paper the IPG strips were placed on the SDS gel; the electrical settings were 10 mA/gel, 80 V, 1 W/gel for 1 h, followed by 40 mA/gel, 500 V, 13 W/gel for 5-6 h. […]

Substance: rhHMGB1: recombinant human High Mobility Group B1 protein (Sigma Aldrich)
- cell death, combined treatment with TRAIL ([1]; 4 nM rhHMGB1 and TRAIL, 24 h (FIG. 1C)): strong synergistic induction of cell death
- cell death, combined treatment with Temozolomide ([1]; 4 nM rhHMGB1 and temozolomide, 72 h (FIG. 1C)): strong synergistic induction of cell death
- cell death ([1]; 80 nM, after 48 h): substantial cell death
- susceptibility to rhHMGB1-induced cell death ([1]; 72 h (FIG. 1B)): susceptible
- Propidiumiodide (PI) uptake compared to untreated control [2]: evidently increased
- activation of caspase 3 [3]: neither activation of caspase 3
- release of cytochrome c [3]: nor release of cytochrome c was observed
- mitochondrial proteome, 2-D silver staining ([4]; 80 nM, 24 h (FIG. 11B)): massive depletion of the isoelectric-neutral proteins
- covalently bound malondialdehyde, 2-D western blot ([4]; alkaline range (FIG. 11C)): substantial increase in covalently bound malondialdehyde
